Experimental data as given in patent publication US20130072505A1, “6,9-Disubstituted Purine Derivatives and Their Use for Treating Skin” (priority 2006, published 2013).
Marks after values point to notes of the source that are not given here.

Tested on: photodamaged facial skin
Test: clinical study of topical treatment of photodamaged facial skin, 12 weeks
Type: in vivo, human
Conditions: for investigator's assessment of overall improvement in skin condition (relative to baseline): 6-point scale (1=excellent improvement to 5=no improvement; 6=worse); for investigator's assessment of overall skin condition: 10 point scale (0=None; 1-3=Mild; 4-6=Moderate; 7-9=Severe); for Mean Improvement from Baseline: TEWL / Mean Improvement from Baseline: Coarse Wrinkles / Mean Improvement from Baseline: Fine Wrinkles / Mean Improvement from Baseline: Mottled Hyperpigmentation / Mean Improvement from Baseline: Overall Skin Condition / Mean Improvement from Baseline: Roughness / Subjects Reporting Improvement from Baseline: Blotchiness / Subjects Reporting Improvement from Baseline: Color / Subjects Reporting Improvement from Baseline: Fine Wrinkles / Subjects Reporting Improvement from Baseline: Texture: 0.10% topical; for Mean Improvement from Baseline: Coarse Wrinkles / Mean Improvement from Baseline: Fine Wrinkles / Mean Improvement from Baseline: Mottled Hyperpigmentation / Mean Improvement from Baseline: Overall Skin Condition / Mean Improvement from Baseline: Roughness: expert evaluation; for Skin Moisture / TEWL: 0.10% in MillCreek Lotion twice daily
Excerpt: A clinical study has been conducted to determine the cosmetic efficacy and subjects' tolerance of topical 6-furfurylamino-9-(2-tetrahydropyranyl)purine (0.10%) applied twice daily for 12 weeks to improve the clinical signs and symptoms of photodamaged facial skin. Forty female volunteer subjects age 40 to 65 with mild to moderate signs of photo damaged facial skin were enroled in the study. Thirty four subjects competed the study; the mean age of subjects competing the study was about 54 years. Subjects were instructed to apply the test product to the entire facial skin twice daily (i.e., early morning and approximately 1 hour before bedtime) for 12 consecutive weeks. Subjects were also instructed that, other than sunscreens or mild cleansers and use of color cosmetics, no other topical skin care products or medications were to be used on the face during the study. The test product comprised 0.1 percent 6-furfurylamino-9-(2-tetrahydropyranyl)purine in MillCreek Lotion as vehicle.
Subjects were assessed at weeks 2, 4, 8, and 12. The treated facial skin was evaluated for clinical signs of skin aging (e.g., coarse and fine wrinkles, roughness, mottled hyperpigmentation) at study entry (baseline) as well as 2, 4, 8 and 12 weeks. The subjects' self-assessment of improvement over baseline (wrinkles, texture, blotchiness, color, and overall improvement) were also obtained. In addition, transepidermal water loss (TEWL) and skin moisture measurements were taken on the cheeks of all subjects.
TEWL refers to the amount of water vapor loss through the stratum corneum. […] TEWL measurements were taken using a TEWL meter (Courage & Khazaka, Köln, Germany) having composed of a probe (containing humidity and temperature sensors) connected to a central processing unit. For each subject, the probe was placed in the center of both cheeks and measurements taken in duplicate.
An indirect measurement of the skin's moisture content was made by measuring changes in the skin's electrical properties. Impedance based capacitance measurements were taken on the skin using a NOVA DPM 9003® (NOVA Technologies, Gloucester, Mass., USA). The instrument performs measurements at varying preselected frequencies (up to 1 MHz) of the applied alternating current. A value directly related to capacitance is determined in arbitrary units; a higher value indicates a greater capacitance which indicates an increased level of moisture at the test site. Measurements in triplicate were taken in the center of both cheeks for each test subject.
At the baseline (Day 0) visit, an investigator evaluated each subject's face for the presence of fine wrinkles, coarse wrinkles, roughness, mottled hyperpigmentation, and other parameters using a five-point scale (0=None; 1=Minimal; 2=Mild; 3=Moderate; and 4=Severe). The overall severity of skin photodamage (wrinkles, roughness and mottled hyperpigmentation) was evaluated using a 10 point scale (0=None; 1-3=Mild; 4-6=Moderate; and 7-9=Severe); subjects with baseline severity scores greater than 6 were excluded from the study.
On each subsequent visit, the investigator evaluated overall improvement compared to baseline using a 6-point scale (1=excellent improvement; 2=marked improvement; 3=moderate improvement; 4=slight improvement; 5=no improvement; and 6=worse).
At each subsequent visit, the subjects were asked to complete a self-assessment questionnaire to assess the improvement from baseline for skin texture, skin color, blotchiness (i.e., brown spots), fine wrinkles; and overall improvement using a five-point scale (1=much improved; 2=somewhat improved; 3=no change; 4=somewhat worse; and 5=much worse).
This Example compares the clinical data for topically applied 6-furfurylamino-9-(2-tetrahydropyranyl)purine (0.10%) taken from Example 23 with similar clinical data generated for topically applied kinetin (0.1%) from an earlier study. […]

[1] = Eight Week Data, self assessment
[2] = Twelve Week Data, self assessment
[3] = Week 2, investigator, five-point scale 0=None to 4=Severe
[4] = Week 2, subjects' self assessment, five-point scale 1=much improved to 5=much worse
[5] = Week 4, investigator, five-point scale 0=None to 4=Severe
[6] = Week 4, subjects' self assessment, five-point scale 1=much improved to 5=much worse
[7] = Week 8, investigator, five-point scale 0=None to 4=Severe
[8] = Week 8, subjects' self assessment, five-point scale 1=much improved to 5=much worse
[9] = Week 12, investigator, five-point scale 0=None to 4=Severe
[10] = Week 12, subjects' self assessment, five-point scale 1=much improved to 5=much worse

Structure (SMILES): c1coc(CNc2ncnc3c2ncn3C2CCCCO2)c1 (centres unmarked) [6-furfurylamino-9-(2-tetrahydropyranyl)purine]
- overall skin condition, change relative to baseline (2 weeks): −1.22%
- investigator's assessment of overall improvement in skin condition (relative to baseline) (2 weeks): 4.95
- investigator's assessment of overall skin condition (2 weeks): 4.05
- overall improvement, change relative to 2 week data (4 weeks): −10.61%
- overall skin condition, change relative to baseline (4 weeks): −15.23%
- investigator's assessment of overall improvement in skin condition (relative to baseline) (4 weeks): 4.44
- investigator's assessment of overall skin condition (4 weeks): 3.56
- overall improvement, change relative to 2 week data (8 weeks): −16.67%
- overall skin condition, change relative to baseline (8 weeks): −24.32%
- investigator's assessment of overall improvement in skin condition (relative to baseline) (8 weeks): 4.11
- investigator's assessment of overall skin condition (8 weeks): 3.20
- overall improvement, change relative to 2 week data (12 weeks): −17.16%
- overall skin condition, change relative to baseline (12 weeks): −27.97%
- investigator's assessment of overall improvement in skin condition (relative to baseline) (12 weeks): 4.12
- investigator's assessment of overall skin condition (12 weeks): 3.03
- Mean Improvement from Baseline: TEWL (Eight Week Data): 1%
- Mean Improvement from Baseline: Coarse Wrinkles (Eight Week Data): 7%
- Mean Improvement from Baseline: Fine Wrinkles (Eight Week Data): 22%*
- Mean Improvement from Baseline: Mottled Hyperpigmentation (Eight Week Data): 31%*
- Mean Improvement from Baseline: Overall Skin Condition (Eight Week Data): 24%*
- Mean Improvement from Baseline: Roughness (Eight Week Data): 86%*
- Subjects Reporting Improvement from Baseline: Blotchiness [1]: 60%
- Subjects Reporting Improvement from Baseline: Color [1]: 66%
- Subjects Reporting Improvement from Baseline: Fine Wrinkles [1]: 83%
- Subjects Reporting Improvement from Baseline: Texture [1]: 83%
- Mean Improvement from Baseline: TEWL (Twelve Week Data): 28%
- Mean Improvement from Baseline: Coarse Wrinkles (Twelve Week Data): 14%*
- Mean Improvement from Baseline: Fine Wrinkles (Twelve Week Data): 28%*
- Mean Improvement from Baseline: Mottled Hyperpigmentation (Twelve Week Data): 41%*
- Mean Improvement from Baseline: Overall Skin Condition (Twelve Week Data): 28%*
- Mean Improvement from Baseline: Roughness (Twelve Week Data): 84%*
- Subjects Reporting Improvement from Baseline: Blotchiness [2]: 63%
- Subjects Reporting Improvement from Baseline: Color [2]: 68%
- Subjects Reporting Improvement from Baseline: Fine Wrinkles [2]: 88%
- Subjects Reporting Improvement from Baseline: Texture [2]: 88%
- Acne Change Relative to Baseline (Week 2): −4.00%
- Coarse Wrinkles Change Relative to Baseline (Week 2): 4.44%
- Erythema Change Relative to Baseline (Week 2): −33.33%
- Mottled Hyperpigmentation Change Relative to Baseline (Week 2): −1.45%
- Roughness Change Relative to Baseline (Week 2): −37.31%
- Skin Irritation Change Relative to Baseline (Week 2): 0
- Skin Moisture Change Relative to Baseline (Week 2): 6.22%
- TEWL Change Relative to Baseline (Week 2): −1.98%
- Skin Moisture (Week 2): 125.37* arbitrary units
- TEWL (Week 2): 12.89 g/m^2/hr
- Fine Wrinkles Change Relative to Baseline (Week 2, investigator): −1.28%
- Acne [3]: 0.60
- Coarse Wrinkles [3]: 2.35
- Erythema [3]: 0.40^††
- Fine Wrinkles [3]: 2.18
- Mottled Hyperpigmentation [3]: 1.70
- Roughness [3]: 1.05*
- Skin Irritation [3]: 0
- Blotchiness/Brown Spots [4]: 2.70
- Fine Wrinkles [4]: 2.62
- Overall Improvement [4]: 2.36
- Skin Color [4]: 2.74
- Skin Texture [4]: 2.21
- Acne Change Relative to Baseline (Week 4): −13.64%
- Coarse Wrinkles Change Relative to Baseline (Week 4): −4.76%
- Erythema Change Relative to Baseline (Week 4): −47.62%
- Mottled Hyperpigmentation Change Relative to Baseline (Week 4): −15.63%
- Roughness Change Relative to Baseline (Week 4): −63.79%
- Skin Irritation Change Relative to Baseline (Week 4): 0
- Skin Moisture Change Relative to Baseline (Week 4): 20.96%
- TEWL Change Relative to Baseline (Week 4): −9.62%
- Skin Moisture (Week 4): 141.30* arbitrary units
- TEWL (Week 4): 11.70* g/m^2/hr
- Fine Wrinkles Change Relative to Baseline (Week 4, investigator): −11.25%
- Acne [5]: 0.53
- Coarse Wrinkles [5]: 2.22
- Erythema [5]: 0.31*
- Fine Wrinkles [5]: 1.97*
- Mottled Hyperpigmentation [5]: 1.50*
- Roughness [5]: 0.58*
- Skin Irritation [5]: 0
- Blotchiness/Brown Spots Change Relative to 2 Week Data (Week 4, self assessment): −6.19%
- Fine Wrinkles Change Relative to 2 Week Data (Week 4, self assessment): −18.68%
- Skin Color Change Relative to 2 Week Data (Week 4, self assessment): −5.32%
- Skin Texture Change Relative to 2 Week Data (Week 4, self assessment): −8.97%
- overall improvement, change relative to 2 week data (Week 4, self assessment): −6.17%
- Blotchiness/Brown Spots [6]: 2.58
- Fine Wrinkles [6]: 2.11*
- Overall Improvement [6]: 2.14
- Skin Color [6]: 2.50*
- Skin Texture [6]: 2.03*
- Acne Change Relative to Baseline (Week 8): −9.52%
- Coarse Wrinkles Change Relative to Baseline (Week 8): −7.23%
- Erythema Change Relative to Baseline (Week 8): −66.67%
- Mottled Hyperpigmentation Change Relative to Baseline (Week 8): −30.65%
- Roughness Change Relative to Baseline (Week 8): −85.71%
- Skin Irritation Change Relative to Baseline (Week 8): 0
- Skin Moisture Change Relative to Baseline (Week 8): 35.10%
- TEWL Change Relative to Baseline (Week 8): 0.11%
- Skin Moisture (Week 8): 158.04* arbitrary units
- TEWL (Week 8): 13.08 g/m^2/hr
- Fine Wrinkles Change Relative to Baseline (Week 8, investigator): −21.79%
- Acne [7]: 0.53
- Coarse Wrinkles [7]: 2.20
- Erythema [7]: 0.20*
- Fine Wrinkles [7]: 1.74*
- Mottled Hyperpigmentation [7]: 1.23*
- Roughness [7]: 0.23*
- Skin Irritation [7]: 0
- Blotchiness/Brown Spots Change Relative to 2 Week Data (Week 8, self assessment): −18.95%
- Fine Wrinkles Change Relative to 2 Week Data (Week 8, self assessment): −23.60%
- Skin Color Change Relative to 2 Week Data (Week 8, self assessment): −18.28%
- Skin Texture Change Relative to 2 Week Data (Week 8, self assessment): −15.58%
- overall improvement, change relative to 2 week data (Week 8, self assessment): −16.25%
- Blotchiness/Brown Spots [8]: 2.26*
- Fine Wrinkles [8]: 2.00*
- Overall Improvement [8]: 1.97*
- Skin Color [8]: 2.23*
- Skin Texture [8]: 1.91*
- Acne Change Relative to Baseline (Week 12): −45.00%
- Coarse Wrinkles Change Relative to Baseline (Week 12): −13.75%
- Erythema Change Relative to Baseline (Week 12): −66.67%%
- Mottled Hyperpigmentation Change Relative to Baseline (Week 12): −40.68%
- Roughness Change Relative to Baseline (Week 12): −83.64%
- Skin Irritation Change Relative to Baseline (Week 12): 0
- Skin Moisture Change Relative to Baseline (Week 12): 41.21%
- TEWL Change Relative to Baseline (Week 12): −27.79%
- Skin Moisture (Week 12): 165.42* arbitrary units
- TEWL (Week 12): 9.54* g/m^2/hr
- Fine Wrinkles Change Relative to Baseline (Week 12, investigator): −27.63%
- Acne [9]: 0.32*
- Coarse Wrinkles [9]: 2.03*
- Erythema [9]: 0.21*
- Fine Wrinkles [9]: 1.62*
- Mottled Hyperpigmentation [9]: 1.03*
- Roughness [9]: 0.26*
- Skin Irritation [9]: 0
- Blotchiness/Brown Spots Change Relative to 2 Week Data (Week 12, self assessment): −23.16%
- Fine Wrinkles Change Relative to 2 Week Data (Week 12, self assessment): −28.09%
- Skin Color Change Relative to 2 Week Data (Week 12, self assessment): −22.58%
- Skin Texture Change Relative to 2 Week Data (Week 12, self assessment): −23.38%
- overall improvement, change relative to 2 week data (Week 12, self assessment): −18.75%
- Blotchiness/Brown Spots [10]: 2.15*
- Fine Wrinkles [10]: 1.88*
- Overall Improvement [10]: 1.91*
- Skin Color [10]: 2.12*
- Skin Texture [10]: 1.74*
- Skin irritation or other adverse effects (over the 12 week study period): not observed
